{"source": "patent US20100137398A1", "about": "“USE OF HDAC INHIBITORS FOR THE TREATMENT OF GASTROINTESTINAL CANCERS” (NOVARTIS AG, priority 2007, published 2010)", "tested_on": "Colo205 colon cancer xenograft", "assay": "Colo205 colon cancer xenograft model, tumor growth inhibition and delay", "assay_type": "in vivo, Female athymic nude mice", "settings": "LBH589 30 mg/kg iv Mon/Wed/Fri for 3 weeks, 5-FU 75 mg/kg ip once a week for 3 weeks, or both", "protocol": "Female athymic nude mice-were implanted subcutaneously with Col6205 colon cancer cells. When tumors reached a medan tumor volume of 220 mm3, mice were randomized into groups of 10 mice. Mice were treated with LBH589 at 30 mg/kg intravenously on Monday, Wednesday, Friday per week for 3 weeks, 75 mg/kg of 5-Fluorouracil intraperitoneally once a week for 3 weeks, or combination of the two agents. For tumor growth inhibition (FIG. 2A), compound activity was measured as the percent change in tumor volume of treated animals over control animals (% T/C). The percentage of regression was determined as the percent change in the final tumor volume at the end of the study over the starting tumor volume. For tumor growth delay (FIG. 2B), compound activity was measured as the change in median calculated time to the study end point (TTE), which was predefined as tumor volume of 1000 mm^3."}
{"smiles": "O=c1[nH]cc(F)c(=O)[nH]1", "note": "[5-FU, 5-Fluorouracil, reference compound]", "values": [{"measurement": "tumor growth inhibition (TGI) and tumor growth delay (TGD)", "value": "led to tumor growth inhibition (TGI) and tumor growth delay (TGD)"}, {"measurement": "Median TTE (time to study end point, tumor volume of 1000 mm^3)", "setting": "vehicle 39.5 days", "value": 44.5, "unit": "days"}]}
